{
  "source": "patent US20180021460A1",
  "about": "“PROBES AND METHODS FOR DETECTING AMYLOIDOGENIC PROTEINS” (Academia Sinica, priority 2016, published 2018)",
  "key": {"[1]": {"system": "Ran (RAS-related nuclear protein)", "assay": "Localization of endogenous Ran in JHR2-treated cells", "format": "cell-based", "protocol": "(§1) Mouse neuroblastoma N2A cells (generous gift from Dr. Yijuang Chern, IBMS, Academia Sinica) were cultured in Dulbecco's modified Eagle's medium (DMEM) (Invitrogen) supplemented with 2 mM glutamine, 10% heat-inactivated fetal bovine serum and 100 U/mL penicillin-streptomycin (Invitrogen) at 37° C. in a humidified atmosphere with 5% CO2. Before peptide incubation, cells were treated with 5-aminoimidazole-4-carboxamide-1-β-D-ribofuranoside (AICAR) to induce the cytoplasmic mislocalization of TDP-43. JHR2 was prepared by dissolving the lyophilized powder in the cell culture medium. Cells were incubated with polypeptide-containing medium for 3 hr, washed, and UV-illuminated (mercury lamp with 345-385 nm bandpass filter, average power: 8.24 mW/cm^2).\n(§2) For EGFP-TDP-43 expression, 2×10^5 of N2A cells in a 30-mm square coverslip were transfected with 1 μg of full-length TDP-43-EGFP plasmid with TurboFect Transfection Reagent (Thermo Scientific) according to the manufacturer's protocol. After peptide and photolysis treatment as described above, cells were incubated for an additional 24 hr and then fixed with 4 paraformaldehyde. Confocal images were captured with LSM 880 and super resolution imaging was performed with Airy Scan (Zeiss, Germany). For immunostaining, anti-TDP-43 antibody (Abcam, ab104223) and anti-Ran (Abcam, ab155103) antibody were used, respectively."}, "[2]": {"system": "endogenous TDP-43 in N2A cells", "assay": "Endogenous TDP-43 aggregates in N2A cells (immunostaining, high content analysis)", "format": "cell-based, mouse", "conditions": "pinhole-confined UV light spot, 24 hr incubation", "protocol": "(§3) Cell Maintenance, Peptide Treatment, and Photolysis\nas §1\nas §2, with “For immunostaining, anti-TDP-43 antibody (Abcam, ab104223) and anti-Ran (Abcam, ab155103) antibody were used, respectively.” left out"}, "[3]": {"assay": "Transmission electron microscopy (vesicle size, fibril formation)", "format": "physicochemical", "conditions": "upon illumination 335-379 nm, 8.24 mW/cm^2, 3 mins", "protocol": "Transmission Electron Microscopy\nThe resulting aliquots of peptide solutions (5 μL) were applied on glow-charged 300 mesh formvar- and carbon-coated copper grids stained with 1% uranyl acetate. After drying overnight, all samples were analyzed using a JEM-2011 electron microscope (JEOL, Japan)."}, "[4]": {"system": "EGFP-TDP-43 in N2A cells", "assay": "Time-lapse living cell fluorescence microscopy and Annexin V staining", "format": "cell-based, mouse", "protocol": "Time-lapse Living Fluorescence Cell Microscopy and Annexin V Staining\nN2A cells (5×10^4) were transfected with 1 μg of full-length TDP-43-EGFP in a sterilized 35 mm μ-Dish (Ibidi, Martinsried, Germany). The living cells were imaged with a Nikon TiE inverted microscope equipped with a Tokai-hit constant humidity chamber (37° C., 5% CO2) for 25 hr. Hoechst, EGFP, Aleax Fluor 568 and Cy5 cube filters were used to collect the fluorescence emission accordingly. Cellular images were captured with an Andor iXon3 888 back-illuminated high sensitivity EMCCD camera. Images were analyzed and quantified using Nikon NIS element software. After 24 hr of peptide treatment, the cells were washed twice with PBS, washed once with 1× Annexin V binding buffer, incubated with Annexin V-Cy5 (BioVision, USA) at room temperature and imaged."}, "[5]": {"system": "EGFP-TDP-43 in N2A cells", "assay": "EGFP-TDP-43 aggregation / co-localization in JHR2-treated N2A cells (confocal)", "format": "cell-based, mouse", "protocol": "as §3, §1\nConfocal and Super-Resolution Fluorescence Microscopy with Airy Scan\nas §2, with “For immunostaining, anti-TDP-43 antibody (Abcam, ab104223) and anti-Ran (Abcam, ab155103) antibody were used, respectively.” left out"}, "[6]": {"system": "TDP-43 and importin-α1", "assay": "Localization of endogenous TDP-43 and importin-α1 in JHR2-treated cells", "format": "cell-based"}, "[7]": {"system": "EGFP-TDP-43 in N2A cells", "assay": "Microinjection of probe into N2A cells and irradiation", "format": "cell-based, mouse", "conditions": "N2A cells microinjected, data not shown", "excerpt": "The glass microneedles for microinjection (1B100-F4, World Precision Instruments, USA) were pulled with a PC-10 capillary puller (Narishige, Japan). […] A Picospriterzer III microinjection system and a joystick micromanipulator (Narishige, Japan) mounted with a stage-side of a microscope (IX-71, Olympus, Japan) were used for delivering the peptide solution into the cytosol of N2A cells. After microinjection (injection pressure, 80 hPa; injection time, 100 msec; compensation pressure, 20 hPa), cells were subsequently rinsed with 2 mL of L-15 medium supplemented with 10% FBS for 1 hr of recovery."}},
  "note": "Non-standard residues stand in square brackets, D forms with d. No end group written: not given here. o‑nitrobenzyl photocleavable linker = o-nitrobenzyl photocleavable moiety placed between the 8R peptide and the amyloidogenic sequence; Alexa568 = Alexa568 fluorophore linked to the cysteine residue",
  "data": [
    {"substance": "JHR2: Same peptide probe as JHR1 with Alexa568 fluorophore linked to the cysteine residue instead of tert-butyl thiol (RRRRRRRR[o‑nitrobenzyl photocleavable linker]MGGGMNFGAFSINPAMC(Alexa568)-NH2)", "values": [
      {"measurement": "Ran protein miss-localized into the cytoplasm", "setting": "[1]; +JHR2+Light", "result": "> 90", "unit": "%"},
      {"measurement": "Ran localization, probe-treated only (no light)", "setting": "[1]; +JHR2−Light", "result": "mainly resided in the nucleus"},
      {"measurement": "seeding of endogenous TDP-43 cytosolic aggregation within confined illuminated area", "setting": "[2]", "result": "selectively induced the JHR2 amyloid to “seed” endogenous TDP-43 cytosolic aggregation"},
      {"measurement": "time to detection of massive fibrils (TEM)", "setting": "[3]", "result": "≤ 4", "unit": "h"},
      {"measurement": "time at which EGFP-TDP-43 puncta became detectable", "setting": "[4]; N2A cells expressing EGFP-TDP-43, with JHR2, after illumination", "result": "Twenty hours after illumination, the EGFP-TDP-43 puncta became detectable"},
      {"measurement": "apoptosis by Annexin V staining", "setting": "[4]; N2A cells with EGFP-TDP-43 inclusion bodies, end of time course 25 hr", "result": "on the verge of apoptosis"},
      {"measurement": "aggregates of JHR2 and EGFP-TDP-43 after irradiation", "setting": "[5]; AICAR pretreated, 24 hrs after non-focused light 335-379 nm, 8.24 mW/cm^2, 3 mins", "result": "developed pronounced aggregates and/or inclusion bodies that were largely co-localized in the cytosol"},
      {"measurement": "cell penetration", "setting": "[5]; JHR2 1 μM, 3 hr", "result": "may quickly penetrate cells"},
      {"measurement": "TDP-43 and importin-α1 localization under photoactivation", "setting": "[6]; +JHR2+Light", "result": "translocated from the nucleus to cytosol and formed aggregates"},
      {"measurement": "importin-α1 localization, probe-treated only (no light)", "setting": "[6]; +JHR2−Light", "result": "mainly remained in the nucleus"},
      {"measurement": "onset of EGFP-TDP43 aggregation after microinjection and irradiation", "setting": "[7]", "result": 4, "unit": "h"},
      {"measurement": "onset of clustering of JHR2 after microinjection and irradiation", "setting": "[7]", "result": 2, "unit": "h"}
    ]}
  ]
}
